# Laboratory results reported in patent publication US12486219B2, “Modified tetracyclines for treatment of alcohol use disorder, pain and other disorders involving potential inflammatory processes” (Texas Tech University System, priority 2018, dated 2025).
# Columns and labels:
# [1] = system: binge ethanol consumption; assay: Binge ethanol consumption, minocycline derivatives (FIGS. 8C to 15C); type: in vivo; conditions: figure legend only, values not given
# [2] = system: DBA/2J mice; assay: Alcohol withdrawal, Handling Induced Convulsion scores; type: in vivo
# Procedure: Female and male DBA/2J mice were tested with CMM1, 100 mg/kg per p.o., at 2 hrs following 4 g/kg 20% ethanol in saline. Shown are the Handling Induced Convulsion scores, background subtracted and summed over 24 hours. […] Mean±SEM, n=5/group.
# [3] = system: E. coli; assay: E. coli zone of inhibition (ZOI) and recovered colony forming units (CFU) per disk; type: cell-based; conditions: dose response
# Procedure: Minocycline and two acetylated derivatives, CMM1 (B) and CMM2 (Y), were tested in a dose response manner for A) zone of inhibition (ZOI) and B) recovered colony forming units (CFU) per disk.
# [4] = system: Drinking In the Dark (DID) murine model of binge drinking; assay: Drinking In the Dark (DID) murine model of binge drinking; type: in vivo, mice; conditions: 0, 25, 35, 50 and 100 mg/kg p.o. vs control; n=4/group; p=0.004; dose-dependent
# Procedure: Using a standard Drinking In the Dark (DID) murine model of binge drinking, we tested the effect of 0, 25, 35, 50 and 100 mg/kg per os (p.o.) acetylated minocycline (derivative Y, or CMM1) vs control.
# [5] = system: AUD traits; conditions: seven tetracyclines tested; cited from earlier work
# [6] = cited from earlier work
# [7] = system: DID ethanol consumption; assay: DID ethanol consumption after "sterilization" of the GI microbiome; type: in vivo, mice; conditions: ten-day ampicillin, neomycin, metronidazole, vancomycin; tigecycline 100 mg/kg i.p.; n=7
# Procedure: A ten-day “sterilization” treatment with ampicillin, neomycin, metronidozale and vancomycin was used. Bedding was changed daily to avoid repopulation. DID was started on day 11 after one day of no metronidazole. Tigecycline was given at 100 mg/kg intraperitoneal (i.p.) n=7, mean±SEM.
# [8] = system: DID consumption; assay: DID consumption after intracerebroventricular (ICV) drug; type: in vivo, mice; conditions: 3 ul of drug (9 mg/ml) icv 20 hrs prior to DID testing; n=9-11; p<0.01
# Procedure: To test the hypothesis that tigecycline works at the level of the CNS, rather than the PNS, 3 ul of drug (9 mg/ml) was given icy 20 hrs prior to DID testing. n=9-11, mean±SEM, **p<0.01.
structure (smiles),measurement,setting,value
"CCCCOc1ccc(N(C)C)c2c1C(=O)C1=C(O)C3(O)C(=O)C(C(N)=O)=C(O)C(N(C)C)C3CC1C2 (stereo not shown) [Butyl Ether Minocycline, 10-Butoxy-4,7-bis-dimethylamino-3,12,12a-trihydroxy-1,11-dioxo-1,4,4a,5,5a,6,11,12a-octahydro-naphthacene-2-carboxylic acid amide]",binge ethanol consumption,[1],reduction of binge ethanol consumption
CC(=O)NC(=O)c1c(OC(C)=O)c2c(c(N(C)C)c1OC(C)=O)CC1Cc3c(N(C)C)ccc(OC(C)=O)c3C(=O)C1=C2OC(C)=O (stereo not shown) [CMM1],alcohol withdrawal symptoms (Handling Induced Convulsion scores summed over 24 hours),"[2]; 100 mg/kg p.o. at 2 hrs following 4 g/kg 20% ethanol, female and male DBA/2J mice, n=5/group",reduced alcohol withdrawal symptoms
same,efficacy on withdrawal compared with minocycline,"[2]; 100 mg/kg p.o., DBA/2J mice","more effective than the parent drug, minocycline"
same,"efficacy on withdrawal, females vs males","[2]; 100 mg/kg p.o., DBA/2J mice",more effective in females
same,antibiotic activity (ZOI and CFU per disk),[3],loss of antibiotic activity even at high doses
same,ethanol consumption (DID),[4],significantly reduced drinking
CC(=O)NC(=O)c1c(OC(C)=O)c2c(c(N(C)C)c1OC(C)=O)CC1Cc3c(N(C)C)ccc(OC(C)=O)c3C(=O)C1=C2O (stereo not shown) [CMM2],antibiotic activity (ZOI and CFU per disk),[3],loss of antibiotic activity even at high doses
"CC(=O)NC(=O)c1c(O)cc2c(c1O)C(O)=C1C(=O)c3c(OC(C)=O)ccc(N(C)C)c3CC1C2 (stereo not shown) [De Methyl Diacetate Minocycline, Acetic acid 9-acetylcarbamoyl-4-dimethylamino-8,10,11-trihydroxy-12-oxo-5,5a,6,12-tetrahydro-naphthacen-1-yl ester]",binge ethanol consumption,[1],reduction of binge ethanol consumption
C[C@H]1c2cccc(O)c2C(=O)C2=C(O)[C@]3(O)C(=O)C(C(N)=O)=C(O)[C@@H](N(C)C)[C@@H]3[C@@H](O)[C@@H]21 [Doxycycline],efficacy against AUD traits,[5],effective
"CCOc1ccc(N(C)C)c2c1C(=O)C1=C(O)C3(O)C(=O)C(C(N)=O)=C(O)C(N(C)C)C3CC1C2 (stereo not shown) [Ethyl Ether Minocycline, 4,7-Bis-dimethylamino-10-ethoxy-3,12,12a-trihydroxy-1,11-dioxo-1,4,4a,5,5a,6,11,12a-octahydro-naphthacene-2-carboxylic acid amide]",binge ethanol consumption,[1],reduction of binge ethanol consumption
"COc1ccc(N(C)C)c2c1C(=O)C1=C(O)C3(O)C(=O)C(C(N)=O)=C(O)C(N(C)C)C3CC1C2 (stereo not shown) [Methyl Ether Minocycline, 4,7-Bis-dimethylamino-3,12,12a-trihydroxy-10-methoxy-1,11-dioxo-1,4,4a,5,5a,6,11,12a-octahydro-naphthacene-2-carboxylic acid amide]",binge ethanol consumption,[1],reduction of binge ethanol consumption
"COc1ccc(N(C)C)c2c1C(=O)C1=C(O)c3c(O)c(C(=O)NC(C)=O)c(O)c(N(C)C)c3CC1C2 (stereo not shown) [Methyl Ether N-Monoacetate Minocycline, 4,7-Bis-dimethylamino-1,3,12-trihydroxy-10-methoxy-11-oxo-5,5a,6,11-tetrahydro-naphthacene-2-carboxylic acid acetyl-amide]",binge ethanol consumption,[1],reduction of binge ethanol consumption
"COc1ccc(N(C)C)c2c1C(=O)C1=C(O)c3c(c(N(C)C)c(OC(C)=O)c(C(=O)NC(C)=O)c3OC(C)=O)CC1C2 (stereo not shown) [Methyl Ether Tri Acetate Minocycline, Acetic acid 4-acetoxy-3-acetylcarbamoyl-1,10-bis-dimethylamino-5-hydroxy-7-methoxy-6-oxo-6,11,11a,12-tetrahydro-naphthacen-2-yl ester]",binge ethanol consumption,[1],reduction of binge ethanol consumption
"CN(C)c1ccc(O)c2c1CC1CC3C(N(C)C)C(O)=C(C(N)=O)C(=O)C3(O)C(O)=C1C2=O (stereo not shown) [Minocycline, 4.7-Bis-dimcthylamino-3,10,12,12a-tctrahydroxy-1,11-dioxo-1,4.4a,5,5a,6,11,12 a-octahydro-naphthacene-2-carboxylic acid amide]",efficacy against AUD traits,[5],effective
CN(C)[C@@H]1C(O)=C(C(N)=O)C(=O)[C@@]2(O)C(O)=C3C(=O)c4c(O)cccc4[C@@](C)(O)[C@H]3[C@H](O)[C@@H]12 [Oxytetracycline],LogD,[6],−4.25
same,LogP,[6],−1.5
"CC(=O)NC(=O)c1c(OC(C)=O)c2c(c(N(C)C)c1OC(C)=O)CC1Cc3c(N(C)C)ccc(OC(C)=O)c3C(=O)C1=C2OC(C)=O (stereo not shown) [Penta Acetyl Minocycline, Acetic acid 3,10,12-triacetoxy-2-acetylcarbamoyl-4,7-bis-dimethylamino-11-oxo-5,5a,6,11-tetrahydro-naphthacen-1-yl ester]",binge ethanol consumption,[1],reduction of binge ethanol consumption
"CCCOc1ccc(N(C)C)c2c1C(=O)C1=C(O)C3(O)C(=O)C(C(N)=O)=C(O)C(N(C)C)C3CC1C2 (stereo not shown) [Propyl Ether Minocycline, 4,7-Bis-dimethylamino-3,12,12a-trihydroxy-1,11-dioxo-10-propoxy-1,4,4a,5,5a,6,11,12a-octahydro-naphthacene-2-carboxylic acid amide]",binge ethanol consumption,[1],reduction of binge ethanol consumption
"CC(=O)NC(=O)c1c(OC(C)=O)c2c(c(N(C)C)c1OC(C)=O)CC1Cc3c(N(C)C)ccc(OC(C)=O)c3C(=O)C1=C2O (stereo not shown) [Tetra Acetyl Minocycline, Acetic acid 3,10-diacetoxy-2-acetylcarbamoyl-4,7-bis-dimethylamino-12-hydroxy-11-oxo-5,5a,6,11-tetrahydro-naphthacen-1-yl ester]",binge ethanol consumption,[1],reduction of binge ethanol consumption
CN(C)c1cc(NC(=O)CNC(C)(C)C)c(O)c2c1C[C@H]1C[C@H]3[C@H](N(C)C)C(O)=C(C(N)=O)C(=O)[C@@]3(O)C(O)=C1C2=O [Tigecycline],"DID ethanol consumption / tigecycline efficacy, sterilized vs not",[7],No significant difference
same,DID consumption,[8],reduced DID consumption
same,efficacy against AUD traits,[5],effective
